From ChEMBL document CHEMBL1128071, “Rational design, synthesis, and X-ray structure of renin inhibitors with extended P1 sidechains” (Bioorg Med Chem Lett, 1995) come the findings set out here.

pIC50: −log10 of the molar value.

The assay deals with T1, Renin (Homo sapiens, UniProt P00797).
T1 sequence (P00797 whole entry): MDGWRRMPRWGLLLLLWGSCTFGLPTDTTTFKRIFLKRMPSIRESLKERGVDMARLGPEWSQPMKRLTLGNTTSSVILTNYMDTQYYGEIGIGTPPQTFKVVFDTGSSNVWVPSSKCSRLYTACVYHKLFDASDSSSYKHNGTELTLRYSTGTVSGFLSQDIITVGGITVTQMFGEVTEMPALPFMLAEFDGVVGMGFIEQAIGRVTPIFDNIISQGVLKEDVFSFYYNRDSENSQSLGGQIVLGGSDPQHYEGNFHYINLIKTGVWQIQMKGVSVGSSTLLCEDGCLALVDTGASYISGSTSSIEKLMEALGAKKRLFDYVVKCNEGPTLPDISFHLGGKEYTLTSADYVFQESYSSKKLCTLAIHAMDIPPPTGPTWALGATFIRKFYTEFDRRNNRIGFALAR
As to the kind of experiment: Inhibition against recombinant human renin (rHR).

In the case of `CSC[C@H](NC(=O)CNC(=O)N1CCC(=O)CC1)C(=O)N[C@@H](Cc1ccc(-c2ccccc2)cc1)[C@@H](O)[C@@H](O)CC(C)C`, the pIC50 is 6.89.

`CSC[C@H](NC(C)=O)C(=O)N[C@@H](Cc1ccc(-c2ccccc2)cc1)[C@@H](O)[C@@H](O)CC(C)C`: the pIC50 is 5.96. With `CSC[C@H](NC(=O)CNC(=O)N1CCC(=O)CC1)C(=O)N[C@@H](CC1CCCCC1)[C@@H](O)[C@@H](O)CC(C)C`, the pIC50 is 5.92. To `CSC[C@H](NC(=O)CNC(=O)N1CCC(=O)CC1)C(=O)N[C@@H](Cc1ccccc1)[C@@H](O)[C@@H](O)CC(C)C` belongs 4.80; to `CSC[C@H](NC(=O)[C@H](Cc1ccccc1)NC(=O)N1CCC(=O)CC1)C(=O)N[C@@H](CC1CCCCC1)[C@@H](O)[C@@H](O)CC(C)C`, 9.52; to `CSC[C@H](NC(=O)CNC(=O)N1CCC(=O)CC1)C(=O)N[C@@H](Cc1ccc(Oc2ccccc2)cc1)[C@@H](O)[C@@H](O)CC(C)C`, 7.18.

With `CSC[C@H](NC(C)=O)C(=O)N[C@@H](Cc1cccc(-c2ccccc2)c1)[C@@H](O)[C@@H](O)CC(C)C`, the pIC50 is 5.80. Consider `CSC[C@H](NC(=O)CNC(=O)N1CCC(=O)CC1)C(=O)N[C@@H](Cc1cccc(-c2ccccc2)c1)[C@@H](O)[C@@H](O)CC(C)C`, for which the pIC50 is 6.96. Consider `CSC[C@H](NC(C)=O)C(=O)N[C@@H](CC1CCCCC1)[C@@H](O)[C@@H](O)CC(C)C`, for which the pIC50 was 5.29.
